Tested on: 699152-130-R-J1-PDC complex spheroid viability
Assay: Anticancer human tumor 699152-130-R-J1-PDC patient-derived pancreatic carcinoma cell line growth inhibition [POLQ]
Details: for IC50: curve of first compound; for viability, T/C: stronger effect = lower value
Summary of the method: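 Complex spheroid viability model combining PDC tumour cells with endothelial (HUVEC) and MSC stromal cells. Novobiocin, ART-558 or RP6685 were tested singly and in combination with standard and investigational anticancer drugs. Each was titrated in half-log steps from near clinical Cmax, or from 10 microM where Cmax was unknown.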
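Note: spheroids exposed to agents for 7 days before viability reading.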
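Throughout, for viability, T/C: percent of DMSO vehicle control viability so 100% = vehicle and 0% = no viable signal.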

Q: `O=C(Nc1ccc(O)c(NS(=O)(=O)c2ccc(F)cc2)c1)c1ccc(-c2ccccc2)cc1` + Cc1cccc(N(C)C(=O)C2C(O)CCN2c2nc(C)cc(C(F)(F)F)c2C#N)c1 was tested. Which IC50 (second compound 0.0316 µM) did it give?
A: The IC50 was greater than 10 µM.

Q: And the IC50 (second compound 0.1 µM)?
A: Its IC50 is greater than 10 µM.

Q: And the IC50 (second compound 0.316 µM)?
A: Its IC50 is greater than 10 µM.

Q: What about the IC50 (second compound 1 µM) of the same molecule?
A: The IC50 was greater than 10 µM.

Q: And the IC50 (second compound 3.16 µM)?
A: Its IC50 is greater than 10 µM.

Q: And the IC50 (second compound 10 µM)?
A: Its IC50 is greater than 10 µM.

Q: What about the viability, T/C (second compound 0.0316 µM, first compound 0.0316 µM) of the same molecule?
A: Its viability, T/C is 107%.

Q: What about the viability, T/C (second compound 0.0316 µM, first compound 0.1 µM) of the same molecule?
A: The viability, T/C was 91.1%.

Q: And the viability, T/C (second compound 0.0316 µM, first compound 0.316 µM)?
A: Its viability, T/C is 95.9%.

Q: And the viability, T/C (second compound 0.0316 µM, first compound 1 µM)?
A: Its viability, T/C is 102%.

Q: And the viability, T/C (second compound 0.0316 µM, first compound 3.16 µM)?
A: Its viability, T/C is 108%.

Q: And the viability, T/C (second compound 0.0316 µM, first compound 10 µM)?
A: The viability, T/C was 78%.

Q: And the viability, T/C (second compound 0.1 µM, first compound 0.0316 µM)?
A: The viability, T/C was 110%.

Q: What about the viability, T/C (second compound 0.1 µM, first compound 0.1 µM) of the same molecule?
A: The viability, T/C was 103%.

Q: What about the viability, T/C (second compound 0.1 µM, first compound 0.316 µM) of the same molecule?
A: Its viability, T/C is 100%.

Q: What about the viability, T/C (second compound 0.1 µM, first compound 1 µM) of the same molecule?
A: Its viability, T/C is 106%.

Q: What about the viability, T/C (second compound 0.1 µM, first compound 3.16 µM) of the same molecule?
A: The viability, T/C was 101%.

Q: What about the viability, T/C (second compound 0.1 µM, first compound 10 µM) of the same molecule?
A: Its viability, T/C is 78.7%.

Q: And the viability, T/C (second compound 0.316 µM, first compound 0.0316 µM)?
A: The viability, T/C was 111%.

Q: And the viability, T/C (second compound 0.316 µM, first compound 0.1 µM)?
A: The viability, T/C was 104%.

Q: And the viability, T/C (second compound 0.316 µM, first compound 0.316 µM)?
A: Its viability, T/C is 114%.

Q: And the viability, T/C (second compound 0.316 µM, first compound 1 µM)?
A: The viability, T/C was 105%.

Q: And the viability, T/C (second compound 0.316 µM, first compound 3.16 µM)?
A: The viability, T/C was 98.4%.

Q: And the viability, T/C (second compound 0.316 µM, first compound 10 µM)?
A: Its viability, T/C is 69.3%.

Q: What about the viability, T/C (second compound 1 µM, first compound 0.0316 µM) of the same molecule?
A: The viability, T/C was 103%.

Q: And the viability, T/C (second compound 1 µM, first compound 0.1 µM)?
A: Its viability, T/C is 110%.

Q: What about the viability, T/C (second compound 1 µM, first compound 0.316 µM) of the same molecule?
A: Its viability, T/C is 111%.

Q: What about the viability, T/C (second compound 1 µM, first compound 1 µM) of the same molecule?
A: The viability, T/C was 97%.

Q: What about the viability, T/C (second compound 1 µM, first compound 3.16 µM) of the same molecule?
A: The viability, T/C was 107%.

Q: And the viability, T/C (second compound 1 µM, first compound 10 µM)?
A: Its viability, T/C is 83.3%.

Q: And the viability, T/C (second compound 3.16 µM, first compound 0.0316 µM)?
A: The viability, T/C was 107%.

Q: And the viability, T/C (second compound 3.16 µM, first compound 0.1 µM)?
A: The viability, T/C was 112%.

Q: And the viability, T/C (second compound 3.16 µM, first compound 0.316 µM)?
A: The viability, T/C was 111%.

Q: And the viability, T/C (second compound 3.16 µM, first compound 1 µM)?
A: The viability, T/C was 102%.

Q: What about the viability, T/C (second compound 3.16 µM, first compound 3.16 µM) of the same molecule?
A: Its viability, T/C is 114%.

Q: What about the viability, T/C (second compound 3.16 µM, first compound 10 µM) of the same molecule?
A: The viability, T/C was 81.2%.

Q: What about the viability, T/C (second compound 10 µM, first compound 0.0316 µM) of the same molecule?
A: Its viability, T/C is 89.1%.

Q: What about the viability, T/C (second compound 10 µM, first compound 0.1 µM) of the same molecule?
A: The viability, T/C was 96%.

Q: And the viability, T/C (second compound 10 µM, first compound 0.316 µM)?
A: The viability, T/C was 103%.

Q: What about the viability, T/C (second compound 10 µM, first compound 1 µM) of the same molecule?
A: The viability, T/C was 95.1%.

Q: And the viability, T/C (second compound 10 µM, first compound 3.16 µM)?
A: Its viability, T/C is 97%.

Q: And the viability, T/C (second compound 10 µM, first compound 10 µM)?
A: The viability, T/C was 63.7%.

Source: PubChem BioAssay AID1963835 (Molecular Pharmacology Branch, DTP, NCI, 2024)
